What was measured:
Format in all cases: in vivo
Amaranthus retroflexus [1] = assay: Postemergence herbicidal activity (Example 67); conditions: pos, 800 g/ha; for herbicide rating, AMARE: rated after 10-21 days
In short: (§1)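 Rating followed 10–21 days of greenhouse growth after treatment. Treatment was a single spray at a dose of 800 g/ha (400 L/ha spray volume) applied to plants 3–6 weeks old, using a water-diluted acetone solution containing 0.5% Triton X-155.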

Helianthus annuus [2] = assay: Postemergence herbicidal activity (Example 67); conditions: pos, 800 g/ha; for herbicide rating, HELAN: rated after 10-21 days
In short: as §1

Triticum aestivum [3] = assay: Postemergence herbicidal activity (Example 67); conditions: pos, 800 g/ha; for herbicide rating, TRZAW: rated after 10-21 days
In short: as §1

Veronica persica [4] = assay: Postemergence herbicidal activity (Example 67); conditions: pos, 800 g/ha; for herbicide rating, VERPE: rated after 10-21 days
In short: as §1

Setaria viridis [5] = assay: Postemergence herbicidal activity (Example 67); conditions: pos, 800 g/ha; for herbicide rating, SETVI: rated after 10-21 days
In short: as §1

Galium aparine [6] = assay: Postemergence herbicidal activity (Example 67); conditions: pos, 800 g/ha; for herbicide rating, GALAP: rated after 10-21 days
In short: as §1

Ipomoea hederacea [7] = assay: Postemergence herbicidal activity (Example 67); conditions: pos, 800 g/ha; for herbicide rating, IPOHE: rated after 10-21 days
In short: as §1

Alopecurus myosuroides [8] = assay: Postemergence herbicidal activity (Example 67); conditions: pos, 800 g/ha; for herbicide rating, ALOMY: rated after 10-21 days
In short: as §1

Hordeum vulgare [9] = assay: Postemergence herbicidal activity (Example 67); conditions: pos, 800 g/ha; for herbicide rating, HORVW: rated after 10-21 days
In short: as §1

Chenopodium album [10] = assay: Postemergence herbicidal activity (Example 67); conditions: pos, 800 g/ha; for herbicide rating, CHEAL: rated after 10-21 days
In short: as §1

Zea mays [11] = assay: Postemergence herbicidal activity (Example 67); conditions: pos, 800 g/ha; for herbicide rating, ZEAMX: rated after 10-21 days
In short: as §1

Abutilon theophrasti [12] = assay: Postemergence herbicidal activity (Example 67); conditions: pos, 800 g/ha; for herbicide rating, ABUTH: rated after 10-21 days
In short: as §1

Triticum aestivum [13] = assay: Preemergence herbicidal activity (Example 67); set-up: herbicide rating, TRZAW: scale not given here; conditions: pre, 800 g/ha; for herbicide rating, TRZAW: rated about 1-3 weeks after treatment
In short: (§2)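 Soil surface of seeded cups sprayed with compound (800g/ha, 400 L/ha volume) from acetone/0.5% TRITON X-155 solutions diluted in water. Herbicidal effect scored on a rating scale roughly 1-3 weeks later, plants held in greenhouse.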

Amaranthus retroflexus [14] = assay: Preemergence herbicidal activity (Example 67); conditions: pre, 800 g/ha; for herbicide rating, AMARE: rated about 1-3 weeks after treatment
In short: as §2

Helianthus annuus [15] = assay: Preemergence herbicidal activity (Example 67); conditions: pre, 800 g/ha; for herbicide rating, HELAN: rated about 1-3 weeks after treatment
In short: as §2

Veronica persica [16] = assay: Preemergence herbicidal activity (Example 67); conditions: pre, 800 g/ha; for herbicide rating, VERPE: rated about 1-3 weeks after treatment
In short: as §2

Galium aparine [17] = assay: Preemergence herbicidal activity (Example 67); conditions: pre, 800 g/ha; for herbicide rating, GALAP: rated about 1-3 weeks after treatment
In short: as §2

Ipomoea hederacea [18] = assay: Preemergence herbicidal activity (Example 67); conditions: pre, 800 g/ha; for herbicide rating, IPOHE: rated about 1-3 weeks after treatment
In short: as §2

Chenopodium album [19] = assay: Preemergence herbicidal activity (Example 67); conditions: pre, 800 g/ha; for herbicide rating, CHEAL: rated about 1-3 weeks after treatment
In short: as §2

Zea mays [20] = assay: Preemergence herbicidal activity (Example 67); conditions: pre, 800 g/ha; for herbicide rating, ZEAMX: rated about 1-3 weeks after treatment
In short: as §2

Abutilon theophrasti [21] = assay: Preemergence herbicidal activity (Example 67); conditions: pre, 800 g/ha; for herbicide rating, ABUTH: rated about 1-3 weeks after treatment
In short: as §2

Hordeum vulgare [22] = assay: Preemergence herbicidal activity (Example 67); set-up: herbicide rating, HORVW: scale not given here; conditions: pre, 800 g/ha; for herbicide rating, HORVW: rated about 1-3 weeks after treatment
In short: as §2

Setaria viridis [23] = assay: Preemergence herbicidal activity (Example 67); set-up: herbicide rating, SETVI: scale not given here; conditions: pre, 800 g/ha; for herbicide rating, SETVI: rated about 1-3 weeks after treatment
In short: as §2

Alopecurus myosuroides [24] = assay: Preemergence herbicidal activity (Example 67); set-up: herbicide rating, ALOMY: scale not given here; conditions: pre, 800 g/ha; for herbicide rating, ALOMY: rated about 1-3 weeks after treatment
In short: as §2

## Cc1ccc(-c2nc(C(=O)NC(C)c3cccs3)ns2)cc1 (racemic) [Example 41]
Amaranthus retroflexus [1]
  AMA RE rating: 3 (16-29%)
Helianthus annuus [2]
  HEL AN rating: 5 (45-64%)
Triticum aestivum [3]
  TRZ AW rating: 2 (6-15%)
Veronica persica [4]
  VER PE rating: 0
Setaria viridis [5]
  SET VI rating: 8 (91-99%)
Galium aparine [6]
  GAL AP rating: 3 (16-29%)
Ipomoea hederacea [7]
  IPO HE rating: 3 (16-29%)
Alopecurus myosuroides [8]
  ALO MY rating: 2 (6-15%)
Hordeum vulgare [9]
  HOR VW rating: 2 (6-15%)
Chenopodium album [10]
  CHE AL rating: 5 (45-64%)
Zea mays [11]
  ZEA MX rating: 2 (6-15%)
Abutilon theophrasti [12]
  ABU TH rating: 1 (1-5%)
Triticum aestivum [13]
  TRZ AW rating: 0
Amaranthus retroflexus [14]
  AMA RE rating: 0
Helianthus annuus [15]
  HEL AN rating: 0
Veronica persica [16]
  VER PE rating: 3 (16-29%)
Galium aparine [17]
  GAL AP rating: 0
Ipomoea hederacea [18]
  IPO HE rating: 0
Chenopodium album [19]
  CHE AL rating: 3 (16-29%)
Zea mays [20]
  ZEA MX rating: 4 (30-44%)
Abutilon theophrasti [21]
  ABU TH rating: 0
Hordeum vulgare [22]
  HOR VW rating: 0
Setaria viridis [23]
  SET VI rating: 0
Alopecurus myosuroides [24]
  ALO MY rating: 0

## COc1ccc(-c2nsc(C(=O)Nc3cccc4c3CCCC4)n2)cc1 [Example 55]
Amaranthus retroflexus [1]
  AMA RE rating: 0
Helianthus annuus [2]
  HEL AN rating: 2 (6-15%)
Triticum aestivum [3]
  TRZ AW rating: 1 (1-5%)
Veronica persica [4]
  VER PE rating: 0
Setaria viridis [5]
  SET VI rating: 4 (30-44%)
Galium aparine [6]
  GAL AP rating: 3 (16-29%)
Ipomoea hederacea [7]
  IPO HE rating: 0
Alopecurus myosuroides [8]
  ALO MY rating: 0
Hordeum vulgare [9]
  HOR VW rating: 2 (6-15%)
Chenopodium album [10]
  CHE AL rating: 0
Zea mays [11]
  ZEA MX rating: 3 (16-29%)
Abutilon theophrasti [12]
  ABU TH rating: 0
Triticum aestivum [13]
  TRZ AW rating: 0
Amaranthus retroflexus [14]
  AMA RE rating: 0
Helianthus annuus [15]
  HEL AN rating: 0
Veronica persica [16]
  VER PE rating: 2 (6-15%)
Galium aparine [17]
  GAL AP rating: 0
Ipomoea hederacea [18]
  IPO HE rating: 3 (16-29%)
Chenopodium album [19]
  CHE AL rating: 0
Zea mays [20]
  ZEA MX rating: 0
Abutilon theophrasti [21]
  ABU TH rating: 1 (1-5%)
Hordeum vulgare [22]
  HOR VW rating: 0
Setaria viridis [23]
  SET VI rating: 0
Alopecurus myosuroides [24]
  ALO MY rating: 0

## CC(NC(=O)c1nsc(-c2ccc(F)cc2)n1)c1cccs1 (racemic) [Example 39]
Amaranthus retroflexus [1]
  herbicide rating, AMARE: 3 (16-29%)
Helianthus annuus [2]
  herbicide rating, HELAN: 6 (65-79%)
Triticum aestivum [3]
  herbicide rating, TRZAW: 3 (16-29%)
Veronica persica [4]
  herbicide rating, VERPE: 2 (6-15%)
Setaria viridis [5]
  herbicide rating, SETVI: 8 (91-99%)
Galium aparine [6]
  herbicide rating, GALAP: 5 (45-64%)
Ipomoea hederacea [7]
  herbicide rating, IPOHE: 4 (30-44%)
Alopecurus myosuroides [8]
  herbicide rating, ALOMY: 3 (16-29%)
Hordeum vulgare [9]
  herbicide rating, HORVW: 3 (16-29%)
Chenopodium album [10]
  herbicide rating, CHEAL: 4 (30-44%)
Zea mays [11]
  herbicide rating, ZEAMX: 6 (65-79%)
Abutilon theophrasti [12]
  herbicide rating, ABUTH: 4 (30-44%)
Triticum aestivum [13]
  herbicide rating, TRZAW: 0
Amaranthus retroflexus [14]
  herbicide rating, AMARE: 4 (30-44%)
Helianthus annuus [15]
  herbicide rating, HELAN: 0
Veronica persica [16]
  herbicide rating, VERPE: 0
Galium aparine [17]
  herbicide rating, GALAP: 0
Ipomoea hederacea [18]
  herbicide rating, IPOHE: 0
Chenopodium album [19]
  herbicide rating, CHEAL: 0
Zea mays [20]
  herbicide rating, ZEAMX: 0
Abutilon theophrasti [21]
  herbicide rating, ABUTH: 0
Hordeum vulgare [22]
  herbicide rating, HORVW: 0
Setaria viridis [23]
  herbicide rating, SETVI: 0
Alopecurus myosuroides [24]
  herbicide rating, ALOMY: 0

## CCCCc1nsc(C(=O)NCc2cccs2)n1 [Example 31]
Amaranthus retroflexus [1]
  herbicide rating, AMARE: 0
Helianthus annuus [2]
  herbicide rating, HELAN: 2 (6-15%)
Triticum aestivum [3]
  herbicide rating, TRZAW: 2 (6-15%)
Veronica persica [4]
  herbicide rating, VERPE: 0
Setaria viridis [5]
  herbicide rating, SETVI: 4 (30-44%)
Galium aparine [6]
  herbicide rating, GALAP: 2 (6-15%)
Ipomoea hederacea [7]
  herbicide rating, IPOHE: 3 (16-29%)
Alopecurus myosuroides [8]
  herbicide rating, ALOMY: 2 (6-15%)
Hordeum vulgare [9]
  herbicide rating, HORVW: 0
Chenopodium album [10]
  herbicide rating, CHEAL: 4 (30-44%)
Zea mays [11]
  herbicide rating, ZEAMX: 1 (1-5%)
Abutilon theophrasti [12]
  herbicide rating, ABUTH: 1 (1-5%)
Triticum aestivum [13]
  herbicide rating, TRZAW: 0
Amaranthus retroflexus [14]
  herbicide rating, AMARE: 0
Helianthus annuus [15]
  herbicide rating, HELAN: 0
Veronica persica [16]
  herbicide rating, VERPE: 0
Galium aparine [17]
  herbicide rating, GALAP: 0
Ipomoea hederacea [18]
  herbicide rating, IPOHE: 0
Chenopodium album [19]
  herbicide rating, CHEAL: 0
Zea mays [20]
  herbicide rating, ZEAMX: 0
Abutilon theophrasti [21]
  herbicide rating, ABUTH: 0
Hordeum vulgare [22]
  herbicide rating, HORVW: 0
Setaria viridis [23]
  herbicide rating, SETVI: 0
Alopecurus myosuroides [24]
  herbicide rating, ALOMY: 0

## O=C(NCc1cccs1)c1nsc(-c2ccccc2)n1 [Example 49]
Amaranthus retroflexus [1]
  AMA RE rating: 3 (16-29%)
Helianthus annuus [2]
  HEL AN rating: 8 (91-99%)
Triticum aestivum [3]
  TRZ AW rating: 3 (16-29%)
Veronica persica [4]
  VER PE rating: 3 (16-29%)
Setaria viridis [5]
  SET VI rating: 8 (91-99%)
Galium aparine [6]
  GAL AP rating: 6 (65-79%)
Ipomoea hederacea [7]
  IPO HE rating: 3 (16-29%)
Alopecurus myosuroides [8]
  ALO MY rating: 5 (45-64%)
Hordeum vulgare [9]
  HOR VW rating: 4 (30-44%)
Chenopodium album [10]
  CHE AL rating: 4 (30-44%)
Zea mays [11]
  ZEA MX rating: 4 (30-44%)
Abutilon theophrasti [12]
  ABU TH rating: 4 (30-44%)
Triticum aestivum [13]
  TRZ AW rating: 0
Amaranthus retroflexus [14]
  AMA RE rating: 0
Helianthus annuus [15]
  HEL AN rating: 1 (1-5%)
Veronica persica [16]
  VER PE rating: 0
Galium aparine [17]
  GAL AP rating: 0
Ipomoea hederacea [18]
  IPO HE rating: 0
Chenopodium album [19]
  CHE AL rating: 0
Zea mays [20]
  ZEA MX rating: 0
Abutilon theophrasti [21]
  ABU TH rating: 0
Hordeum vulgare [22]
  HOR VW rating: 0
Setaria viridis [23]
  SET VI rating: 0
Alopecurus myosuroides [24]
  ALO MY rating: 0

## O=C(Nc1ccccc1)c1nsc(-c2cccc(C(F)(F)F)c2)n1 [Example 64]
Amaranthus retroflexus [1]
  AMA RE rating: 0
Helianthus annuus [2]
  HEL AN rating: 0
Triticum aestivum [3]
  TRZ AW rating: 2 (6-15%)
Veronica persica [4]
  VER PE rating: 0
Setaria viridis [5]
  SET VI rating: 4 (30-44%)
Galium aparine [6]
  GAL AP rating: 0
Ipomoea hederacea [7]
  IPO HE rating: 0
Alopecurus myosuroides [8]
  ALO MY rating: 2 (6-15%)
Hordeum vulgare [9]
  HOR VW rating: 1 (1-5%)
Chenopodium album [10]
  CHE AL rating: 0
Zea mays [11]
  ZEA MX rating: 1 (1-5%)
Abutilon theophrasti [12]
  ABU TH rating: 1 (1-5%)
Triticum aestivum [13]
  TRZ AW rating: 2 (6-15%)
Amaranthus retroflexus [14]
  AMA RE rating: 0
Helianthus annuus [15]
  HEL AN rating: 0
Veronica persica [16]
  VER PE rating: 0
Galium aparine [17]
  GAL AP rating: 0
Ipomoea hederacea [18]
  IPO HE rating: 3 (16-29%)
Chenopodium album [19]
  CHE AL rating: 0
Zea mays [20]
  ZEA MX rating: 0
Abutilon theophrasti [21]
  ABU TH rating: 0
Hordeum vulgare [22]
  HOR VW rating: 0
Setaria viridis [23]
  SET VI rating: 2 (6-15%)
Alopecurus myosuroides [24]
  ALO MY rating: 0

Reference: patent EP0726261A1, “Herbidical 1,2,4 thiadiazoles” (American Cyanamid Company, priority 1995, dated 1996)
